According to US20260266848A1, “COMPOSITIONS AND METHODS FOR DIAGNOSING AND TREATING DYSTONIA” (Duke University, priority 2023, published 2026):

System: WT MEF EVs
Assay: Quantitative LC-MS/MS proteomics of EVs from ISRIB-treated WT MEF cultures
Assay type: cell-based, mouse
Set-up: key to ISRIB and DYT Parallel Direction / ISRIB and DYT Parallel Direction, Ctdsp1 / ISRIB and DYT Parallel Direction, Pcdh19 / ISRIB and DYT Parallel Direction, Tspan7 / ISRIB and DYT Parallel Direction, Myo1e / ISRIB and DYT Parallel Direction, Plpp3 / ISRIB and DYT Parallel Direction, Sh3bp4 / ISRIB and DYT Parallel Direction, Dnajc7 / ISRIB and DYT Parallel Direction, Drg1 / ISRIB and DYT Parallel Direction, Maea: YES = protein abundance effect similar to DYT/WT

O=C(COc1ccc(Cl)cc1)NC1CCC(NC(=O)COc2ccc(Cl)cc2)CC1 (stereo not shown) [ISRIB, reference compound]
genotype-disrupted proteins (n=363) reproduced by ISRIB (50 nM, 24 h, p<0.05): 7%
EV proteins disrupted by ISRIB treatment of WT cells (50 nM, 24 h, p<0.05, of 1974 proteins): 5%
WT + ISRIB/WT Cohen's d, Brd4 (EV protein Brd4 (Q9ESU6)): 0.37
WT + ISRIB/WT Cohen's d, Cdk11b (EV protein Cdk11b (P24788)): 4.28
WT + ISRIB/WT Cohen's d, Cfdp1 (EV protein Cfdp1 (O88271)): 8.58
WT + ISRIB/WT Cohen's d, Cstf1 (EV protein Cstf1 (Q99LC2)): 1.34
WT + ISRIB/WT Cohen's d, Ctdsp1 (EV protein Ctdsp1 (P58466)): −10.61
ISRIB and DYT Parallel Direction, Ctdsp1 (EV protein Ctdsp1 (P58466), WT + ISRIB vs WT): YES
WT + ISRIB/WT Cohen's d, Dcaf8 (EV protein Dcaf8 (Q8N7N5)): 0.84
WT + ISRIB/WT Cohen's d, Dnajc7 (EV protein Dnajc7 (Q9QYI3)): −2.37
ISRIB and DYT Parallel Direction, Dnajc7 (EV protein Dnajc7 (Q9QYI3), WT + ISRIB vs WT): YES
WT + ISRIB/WT Cohen's d, Drg1 (EV protein Drg1 (P32233)): −1.58
ISRIB and DYT Parallel Direction, Drg1 (EV protein Drg1 (P32233), WT + ISRIB vs WT): YES
WT + ISRIB/WT Cohen's d, Edil3 (EV protein Edil3 (O35474)): 3.24
WT + ISRIB/WT Cohen's d, Grwd1 (EV protein Grwd1 (Q810D6)): 4.92
WT + ISRIB/WT Cohen's d, Heatr3 (EV protein Heatr3 (Q8BQM4)): 1.40
WT + ISRIB/WT Cohen's d, Hmga2 (EV protein Hmga2 (P52927)): 0.21
WT + ISRIB/WT Cohen's d, Kntc1 (EV protein Kntc1 (Q8C3Y4)): 0.31
WT + ISRIB/WT Cohen's d, Lpar6 (EV protein Lpar6 (Q8BMC0)): −1.25
WT + ISRIB/WT Cohen's d, Lsm4 (EV protein Lsm4 (Q9QXA5)): 0.61
WT + ISRIB/WT Cohen's d, Maea (EV protein Maea (Q4VC33)): −2.82
ISRIB and DYT Parallel Direction, Maea (EV protein Maea (Q4VC33), WT + ISRIB vs WT): YES
WT + ISRIB/WT Cohen's d, Myo1e (EV protein Myo1e (E9Q634)): −1.56
ISRIB and DYT Parallel Direction, Myo1e (EV protein Myo1e (E9Q634), WT + ISRIB vs WT): YES
WT + ISRIB/WT Cohen's d, Naa50 (EV protein Naa50 (Q6PGB6)): 1.03
WT + ISRIB/WT Cohen's d, Ndrg1 (EV protein Ndrg1 (Q62433)): 1.14
WT + ISRIB/WT Cohen's d, P3h4 (EV protein P3h4 (Q8K2B0)): 1.07
WT + ISRIB/WT Cohen's d, Pacsin3 (EV protein Pacsin3 (Q99JB8)): −2.60
WT + ISRIB/WT Cohen's d, Pcdh19 (EV protein Pcdh19 (Q80TF3)): −2.26
ISRIB and DYT Parallel Direction, Pcdh19 (EV protein Pcdh19 (Q80TF3), WT + ISRIB vs WT): YES
WT + ISRIB/WT Cohen's d, Plpp3 (EV protein Plpp3 (Q99JY8)): 4.49
ISRIB and DYT Parallel Direction, Plpp3 (EV protein Plpp3 (Q99JY8), WT + ISRIB vs WT): YES
WT + ISRIB/WT Cohen's d, Rbm17 (EV protein Rbm17 (Q8JZX4)): 0.36
WT + ISRIB/WT Cohen's d, Sbno1 (EV protein Sbno1 (Q689Z5)): 0.31
WT + ISRIB/WT Cohen's d, Sec61b (EV protein Sec61b (Q9CQS8)): 3.71
WT + ISRIB/WT Cohen's d, Sh3bp4 (EV protein Sh3bp4 (Q921I6)): −0.29
ISRIB and DYT Parallel Direction, Sh3bp4 (EV protein Sh3bp4 (Q921I6), WT + ISRIB vs WT): YES
WT + ISRIB/WT Cohen's d, Srrm2 (EV protein Srrm2 (Q8BTI8)): 0.17
WT + ISRIB/WT Cohen's d, Sumo1 (EV protein Sumo1 (P63166)): 5.82
WT + ISRIB/WT Cohen's d, Tes (EV protein Tes (P47226)): 1.50
WT + ISRIB/WT Cohen's d, Timp3 (EV protein Timp3 (P39876)): −3.42
WT + ISRIB/WT Cohen's d, Tspan7 (EV protein Tspan7 (Q62283)): −0.21
ISRIB and DYT Parallel Direction, Tspan7 (EV protein Tspan7 (Q62283), WT + ISRIB vs WT): YES
WT + ISRIB/WT Cohen's d, Unc119b (EV protein Unc119b (Q8C4B4)): 0.17
proteins reduced in both mouse and human EVs whose abundance is modulated toward DYT1-like in WT cells (and toward correction by salubrinal in DYT1 cells) (ISRIB): 4 of the 7
Acaa1a (ACAA1) EV abundance Cohen's d (WT+ISRIB/WT, 50 nM, 24 h): −0.8751
Acaa1a (ACAA1) EV abundance Log2_FC (WT+ISRIB/WT, 50 nM, 24 h): −0.6305
Ano6 (ANO6) EV abundance Cohen's d (WT+ISRIB/WT, 50 nM, 24 h): 0.8352
Ano6 (ANO6) EV abundance Log2_FC (WT+ISRIB/WT, 50 nM, 24 h): 0.2496
Ap1b1 (AP1B1) EV abundance Cohen's d (WT+ISRIB/WT, 50 nM, 24 h): −0.2382
Ap1b1 (AP1B1) EV abundance Log2_FC (WT+ISRIB/WT, 50 nM, 24 h): −0.1813
Arl8b (ARL8B) EV abundance Cohen's d (WT+ISRIB/WT, 50 nM, 24 h): −0.8778
Arl8b (ARL8B) EV abundance Log2_FC (WT+ISRIB/WT, 50 nM, 24 h): −0.2989
Bzw2 (BZW2) EV abundance Cohen's d (WT+ISRIB/WT, 50 nM, 24 h): −0.9186
Bzw2 (BZW2) EV abundance Log2_FC (WT+ISRIB/WT, 50 nM, 24 h): 0.7265
Cryab (CRYAB) EV abundance Cohen's d (WT+ISRIB/WT, 50 nM, 24 h): −0.1165
Cryab (CRYAB) EV abundance Log2_FC (WT+ISRIB/WT, 50 nM, 24 h): 0.1177
DIst (DLST) EV abundance Cohen's d (WT+ISRIB/WT, 50 nM, 24 h): 0.6821
DIst (DLST) EV abundance Log2_FC (WT+ISRIB/WT, 50 nM, 24 h): −1.897
Ehd4 (EHD4) EV abundance Cohen's d (WT+ISRIB/WT, 50 nM, 24 h): −1.159
Ehd4 (EHD4) EV abundance Log2_FC (WT+ISRIB/WT, 50 nM, 24 h): −0.09267
Flna (FLNA) EV abundance Cohen's d (WT+ISRIB/WT, 50 nM, 24 h): −0.09039
Flna (FLNA) EV abundance Log2_FC (WT+ISRIB/WT, 50 nM, 24 h): −0.2341
Fscn1 (FSCN1) EV abundance Cohen's d (WT+ISRIB/WT, 50 nM, 24 h): −0.9728
Fscn1 (FSCN1) EV abundance Log2_FC (WT+ISRIB/WT, 50 nM, 24 h): −0.2944
Gart (GART) EV abundance Cohen's d (WT+ISRIB/WT, 50 nM, 24 h): −0.1196
Gart (GART) EV abundance Log2_FC (WT+ISRIB/WT, 50 nM, 24 h): −0.2546
Hist1h1b (H1-5) EV abundance Cohen's d (WT+ISRIB/WT, 50 nM, 24 h): −0.4556
Hist1h1b (H1-5) EV abundance Log2_FC (WT+ISRIB/WT, 50 nM, 24 h): −0.08676
Hnrnpc (HNRNPC) EV abundance Cohen's d (WT+ISRIB/WT, 50 nM, 24 h): 1.199
